# US10815238B2, “Antimicrobial compounds and methods of making and using the same” (BIOVERSYS AG, priority 2013, dated 2020)
# System: Eschericia coli (E. coli) strain ATCC25922
# Assay: Standard microdilution assay, MIC against E. coli ATCC25922
# Format: cell-based
# Details: Escherichia coli; E. coli strain ATCC25922, standard microdilution assay; cutoff 16 micrograms/mL; read-out: MIC E. Coli
# Procedure, shortened: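 MIC determined by broth microdilution following CLSI protocols, with reference strains run in parallel for quality control. Activity scored +/− at a cutoff of 16 micrograms/mL.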
row,Structure (SMILES),MIC
1,C[C@H](N)CCCc1cc(Cl)c(F)c(-c2cc3cn(-c4ccc([C@H](C)NCC[C@@H](CO)NC(=N)N)cc4)c(=O)nc3[nH]2)c1 [Compound 264],< 16 µg/mL
2,C[C@H](N)CCCc1cc(OC(F)(F)F)c(F)c(-c2cc3cn(-c4ccc([C@H](C)NCC[C@@H](CO)NC(=N)N)cc4)c(=O)nc3[nH]2)c1 [Compound 265],< 16 µg/mL
3,C[C@H](N)CCCc1cc(Cl)c(F)c(-c2cc3cn(-c4ccc([C@H](C)NCC[C@@H](Cc5c[nH]nn5)NC(=N)N)cc4)c(=O)nc3[nH]2)c1 [Compound 266],< 16 µg/mL
4,C[C@H](N)CCCc1cc(Cl)c(F)c(-c2cc3cn(-c4ccc([C@H](C)NCC[C@H](Cc5c[nH]nn5)NC(=N)N)cc4)c(=O)nc3[nH]2)c1 [Compound 267],< 16 µg/mL
5,C[C@H](N)CCCc1cc(OC(F)(F)F)c(F)c(-c2cc3cn(-c4ccc([C@H](C)NCC[C@@H](Cc5c[nH]nn5)NC(=N)N)cc4)c(=O)nc3[nH]2)c1 [Compound 268],< 16 µg/mL
6,C[C@H](N)CCCc1cc(OC(F)(F)F)c(F)c(-c2cc3cn(-c4ccc([C@H](C)NCC[C@H](Cc5c[nH]nn5)NC(=N)N)cc4)c(=O)nc3[nH]2)c1 [Compound 269],< 16 µg/mL
7,C[C@H](N)CCCc1cc(Cl)c(F)c(-c2cc3cn(-c4ccc([C@H](C)NCCC(CC(O)CO)NC(=N)N)cc4)c(=O)nc3[nH]2)c1 (some centres unmarked) [Compound 270],< 16 µg/mL
8,C[C@H](N)CCCc1cc(Cl)c(F)c(-c2cc3cn(-c4ccc([C@H](C)NCC[C@@H](CN)NC(=N)N)cc4)c(=O)nc3[nH]2)c1 [Compound 271],< 16 µg/mL
9,C[C@H](N)CCCc1cc(Cl)c(F)c(-c2cc3cn(-c4ccc([C@H](C)NCC[C@@H](CNCc5nccs5)NC(=N)N)cc4)c(=O)nc3[nH]2)c1 [Compound 272],< 16 µg/mL
10,C[C@H](N)CCCc1cc(Cl)c(F)c(-c2cc3cn(-c4ccc(CN[C@@H](CO)CCNC(=N)N)cc4)c(=O)nc3[nH]2)c1 [Compound 273],< 16 µg/mL
11,C[C@H](N)CCCc1cc(OC(F)(F)F)c(F)c(-c2cc3cn(-c4ccc(CN[C@@H](CO)CCNC(=N)N)cc4)c(=O)nc3[nH]2)c1 [Compound 274],< 16 µg/mL
12,C[C@H](N)CCCc1cc(Cl)c(F)c(-c2cc3cn(-c4ccc([C@H](C)NCC[C@H](CCCO)NC(=N)N)cc4)c(=O)nc3[nH]2)c1 [Compound 275],< 16 µg/mL
13,C[C@H](N)CCCc1cc(OC(F)(F)F)c(F)c(-c2cc3cn(-c4ccc([C@H](C)NCC[C@H](CCCO)NC(=N)N)cc4)c(=O)nc3[nH]2)c1 [Compound 276],< 16 µg/mL
14,C[C@H](N)CCCc1cc(OC(F)(F)F)c(F)c(-c2cc3cn(-c4ccc([C@H](C)NCC[C@@H](CNCc5nccs5)NC(=N)N)cc4)c(=O)nc3[nH]2)c1 [Compound 277],< 16 µg/mL
15,C[C@H](N)CCCc1cc(OC(F)(F)F)c(F)c(-c2cc3cn(-c4ccc([C@H](C)NCC[C@@H](CN)NC(=N)N)cc4)c(=O)nc3[nH]2)c1 [Compound 278],< 16 µg/mL
16,C[C@H](N)CCCc1cc(Cl)c(F)c(-c2cc3cn(-c4ccc([C@H](C)NCC[C@@H](Cn5cccn5)NC(=N)N)cc4)c(=O)nc3[nH]2)c1 [Compound 279],< 16 µg/mL
17,COC(=O)C[C@H](CCN[C@@H](C)c1ccc(-n2cc3cc(-c4cc(CCC[C@H](C)N)cc(Cl)c4F)[nH]c3nc2=O)cc1)NC(=N)N [Compound 280],< 16 µg/mL
18,C[C@H](N)CCCc1cc(Cl)c(F)c(-c2cc3cn(-c4ccc([C@H](C)NCC[C@@H](CCCN)NC(=N)N)cc4)c(=O)nc3[nH]2)c1 [Compound 281],< 16 µg/mL
19,C[C@H](N)CCCc1cc(Cl)c(F)c(-c2cc3cn(-c4ccc([C@H](C)NCC[C@H](CCCN)NC(=N)N)cc4)c(=O)nc3[nH]2)c1 [Compound 282],< 16 µg/mL
20,C[C@H](N)CCCc1cc(OC(F)(F)F)c(F)c(-c2cc3cn(-c4ccc([C@H](C)NCC[C@@H](CCCN)NC(=N)N)cc4)c(=O)nc3[nH]2)c1 [Compound 283],< 16 µg/mL
21,C[C@H](N)CCCc1cc(OC(F)(F)F)c(F)c(-c2cc3cn(-c4ccc([C@H](C)NCC[C@H](CCCN)NC(=N)N)cc4)c(=O)nc3[nH]2)c1 [Compound 284],< 16 µg/mL
22,C[C@H](N)CCCc1cc(Cl)c(F)c(-c2cc3cn(-c4ccc([C@@H]5CC[C@@H](CCNC(=N)N)N5)cc4)c(=O)nc3[nH]2)c1 [Compound 285],< 16 µg/mL
23,C[C@H](N)CCCc1cc(Cl)c(F)c(-c2[nH]c3nc(=O)n(-c4ccc([C@H](C)NCCCNC(=N)N)cc4)cc3c2Br)c1 [Compound 286],< 16 µg/mL
24,CSC[C@@H](CCN[C@@H](C)c1ccc(-n2cc3cc(-c4cc(CCC[C@H](C)N)cc(Cl)c4F)[nH]c3nc2=O)cc1)NC(=N)N [Compound 287],< 16 µg/mL
25,CSC[C@@H](CCN[C@@H](C)c1ccc(-n2cc3cc(-c4cc(CCC[C@H](C)N)cc(OC(F)(F)F)c4F)[nH]c3nc2=O)cc1)NC(=N)N [Compound 288],< 16 µg/mL
26,C[C@H](N)CCCc1cc(Cl)c(F)c(-c2cc3cn(-c4ccc([C@H](C)NCC[C@H](CS(C)(=O)=O)NC(=N)N)cc4)c(=O)nc3[nH]2)c1 [Compound 289],< 16 µg/mL
27,C[C@H](N)CCCc1cc(Cl)c(F)c(-c2[nH]c3nc(=O)n(-c4ccc([C@H](C)NCCCNC(=N)N)cc4)cc3c2Cl)c1 [Compound 290],< 16 µg/mL

row,Structure (SMILES),MIC
1,C[C@H](N)CCCc1cc(Cl)c(F)c(-c2cc3cn(-c4ccc([C@H](C)N[C@H](CCO)CCNC(=N)N)cc4)c(=O)nc3[nH]2)c1 [Compound 291],< 16 µg/mL
2,C/C=C/C[C@H](CCN[C@@H](C)c1ccc(-n2cc3cc(-c4cc(CCC[C@H](C)N)cc(OC(F)(F)F)c4F)[nH]c3nc2=O)cc1)NC(=N)N [Compound 292],< 16 µg/mL
3,C[C@H](N)CCCc1cc(Cl)c(F)c(-c2cc3cn(-c4ccc([C@H](C)NCC[C@H](Cn5ccnn5)NC(=N)N)cc4)c(=O)nc3[nH]2)c1 [Compound 293],< 16 µg/mL
4,C[C@H](N)CCCc1cc(OC(F)(F)F)c(F)c(-c2cc3cn(-c4ccc([C@H](C)NCC[C@H](Cn5ccnn5)NC(=N)N)cc4)c(=O)nc3[nH]2)c1 [Compound 294],< 16 µg/mL
5,CC(=O)OC[C@H](N)CCCc1cc(Cl)c(F)c(-c2cc3cn(-c4ccc([C@H](C)NCCCNC(=N)N)cc4)c(=O)nc3[nH]2)c1 [Compound 295],< 16 µg/mL
6,C[C@H](NCCCNC(=N)N)c1ccc(-n2cc3cc(-c4cc(CCC[C@@H]5COC(=O)N5)cc(Cl)c4F)[nH]c3nc2=O)cc1 [Compound 296],> 16 µg/mL
7,C[C@H](N)CCCc1cc(Cl)c(F)c(-c2cc3cn(-c4ccc([C@H](C)NCC[C@@H](CC#N)NC(=N)N)cc4)c(=O)nc3[nH]2)c1 [Compound 297],< 16 µg/mL
8,C[C@H](N)CCCc1cc(-c2cn3cc(-c4ccc([C@H](C)NCCCNC(=N)N)cc4)c(=O)nc3[nH]2)cc(C(F)(F)F)c1 [Compound 298],< 16 µg/mL
9,CCOC(=O)N[C@@H](C)CCCc1cc(-c2cn3cc(-c4ccc([C@H](C)NCCCNC(=N)N)cc4)c(=O)nc3[nH]2)cc(C(F)(F)F)c1 [Compound 299],< 16 µg/mL
10,C[C@H](NCCCNC(=N)N)c1ccc(-n2cc3cc(-c4cc(CCC[C@@H](N)COC(=O)c5ccccc5)cc(Cl)c4F)[nH]c3nc2=O)cc1 [Compound 300],< 16 µg/mL
11,C[C@H](N)CCCc1cc(Cl)c(F)c(-c2cc3cn(-c4ccc([C@H](C)NCC[C@H](Cn5cc(CN)nn5)NC(=N)N)cc4)c(=O)nc3[nH]2)c1 [Compound 301],< 16 µg/mL
12,C[C@H](N)CCCc1cc(Cl)c(F)c(-c2cn3cc(-c4ccc([C@H](C)NCCCNC(=N)N)cc4)c(=O)nc3[nH]2)c1 [Compound 302],< 16 µg/mL
13,C[C@H](N)CCCc1cc(Cl)c(F)c(-c2cc3cn(-c4ccc([C@H](C)N[C@@H](CCO)CCNC(=N)N)cc4)c(=O)nc3[nH]2)c1 [Compound 303],< 16 µg/mL
14,C[C@H](N)CCCc1cc(Cl)c(F)c(-c2cc3cn(-c4ccc([C@H](C)NCC[C@H](CN)NC(=N)N)cc4)c(=O)nc3[nH]2)c1 [Compound 304],< 16 µg/mL
15,C[C@H](N)CCCc1cc(OC(F)(F)F)c(F)c(-c2cc3cn(-c4ccc([C@H](C)NCC[C@H](CN)NC(=N)N)cc4)c(=O)nc3[nH]2)c1 [Compound 305],< 16 µg/mL
16,C[C@H](NCCCNC(=N)N)c1ccc(-n2cc3cc(-c4cc(CCC[C@@H](N)COC(=O)NCc5ccccc5)cc(Cl)c4F)[nH]c3nc2=O)cc1 [Compound 306],< 16 µg/mL
17,C[C@H](NCCCNC(=N)N)c1ccc(-n2cc3cc(-c4cc(CCC[C@@H](N)COC(=O)Nc5ccccc5)cc(Cl)c4F)[nH]c3nc2=O)cc1 [Compound 307],< 16 µg/mL
18,C[C@H](NCCCNC(=N)N)c1ccc(-n2cc3cc(-c4cc(CCC[C@@H](N)COC(=O)CCC(=O)O)cc(Cl)c4F)[nH]c3nc2=O)cc1 [Compound 308],< 16 µg/mL
19,C[C@H](NCCCNC(=N)N)c1ccc(-n2cc3cc(-c4cc(CCC[C@H](C)NC(=N)N)cc(Cl)c4F)[nH]c3nc2=O)cc1 [Compound 309],< 16 µg/mL
20,C[C@H](N)CC[C@@H](O)c1cc(Cl)c(F)c(-c2cc3cn(-c4ccc([C@H](C)NCCCNC(=N)N)cc4)c(=O)nc3[nH]2)c1 [Compound 310],< 16 µg/mL
21,C[C@H](N)CCCc1cc(OC(F)(F)F)c(F)c(-c2cc3cn(-c4ccc(CNCC[C@H](CN)NC(=N)N)cc4)c(=O)nc3[nH]2)c1 [Compound 311],< 16 µg/mL
22,C[C@H](N)CCCc1cc(Cl)c(F)c(-c2cc3cn(-c4ccc([C@H](C)NCC[C@H](CCN)NC(=N)N)cc4)c(=O)nc3[nH]2)c1 [Compound 312],< 16 µg/mL
23,C[C@H](N)CCCc1cc(Cl)c(F)c(-c2cc3cn(-c4ccc([C@H](C)NCC[C@@H](CCN)NC(=N)N)cc4)c(=O)nc3[nH]2)c1 [Compound 313],< 16 µg/mL
24,C[C@H](N)CCCc1cc(Cl)c(F)c(-c2cc3cn(-c4ccc([C@H](C)NCC[C@H](CCC#N)NC(=N)N)cc4)c(=O)nc3[nH]2)c1 [Compound 314],< 16 µg/mL
25,C[C@H](N)CCCc1cc(OC(F)(F)F)c(F)c(-c2cc3cn(-c4ccc([C@H](C)NCC[C@H](CCC#N)NC(=N)N)cc4)c(=O)nc3[nH]2)c1 [Compound 315],< 16 µg/mL
26,CC(=O)Oc1ccccc1C(=O)OC[C@H](N)CCCc1cc(Cl)c(F)c(-c2cc3cn(-c4ccc([C@H](C)NCCCNC(=N)N)cc4)c(=O)nc3[nH]2)c1 [Compound 316],< 16 µg/mL
